# Laboratory results published in ChEMBL document CHEMBL3301361, “Experimental in vitro DMPK and physicochemical data on a set of publicly disclosed compounds”.
# Assay: physchem
# Conditions: octan-1-ol/water, pH 7.4
row,SMILES,logD
1,O=C(Cc1c(C(=O)O)[nH]c2ccccc12)Nc1cccc(C(F)(F)F)c1,1.33
2,Oc1ncnc2[nH]ncc12 [ALLOPURINOL],-0.42
3,O=C(NCC1CCOCC1)c1ncccc1NC(=O)c1cccc2ccccc12,4.4
4,CC12NC(Cc3ccccc31)c1ccccc12 (stereo not drawn),1.7
5,CN1CC=CCC(c2ccc(Cl)c(Cl)c2)C1 (stereo not drawn),3.32
6,NC(=O)c1cc([N+](=O)[O-])cc([N+](=O)[O-])c1 [NITROMIDE],0.81
7,O=C(O)c1cc2ccccc2n1Cc1ccccc1,0.78
8,Nc1nnc(Cc2ccc(Cl)cc2)s1,2.34
9,CCC1(c2ccccc2)C(=O)NC(=O)NC1=O [PHENOBARBITAL],0.05
10,CCN(CC)C(=O)c1ccc([C@H](c2cccc(NC(=O)C3CC3)c2)N2CCN(CCOC)CC2)cc1,2.35
11,CC(=O)O[C@H]1CC[C@]2(C=O)[C@H]3CC[C@]4(C)[C@@H](C5=CC(=O)OC5)CC[C@]4(O)[C@@H]3CC[C@]2(O)C1 [STROPHANTHIDIN ACETATE],0.64

# Same assay, conditions: octan-1-ol/water, pH 7.4, LogD7.4
row,SMILES,logD
1,COc1ccccc1C(=O)NCC12CC3CC(CC(C3)C1)C2,4.43
2,Cc1cc2n[nH]c(=O)n2c2cc(-c3ccc[nH]3)ccc12,3.29
3,Cc1cc2[nH]c(=O)c(O)cc(=O)c2cc1C,1.99
4,CC(C)(C)NC(=O)C(c1ccncc1)N(Cc1ccco1)C(=O)c1ccc(-c2ccccc2)[nH]1 (stereo not drawn),4.13
5,Cc1cccc(Nc2ccncc2S(=O)(=O)NC(=O)NC(C)C)c1 [TORSEMIDE],0.3
6,O=C1c2ccccc2CN1C1CCN(CCC(c2ccccc2)c2ccccc2)CC1,4.1
7,O=c1ccnc2cc(C#Cc3ccccc3)ccn12,2.9
8,CN(C)CC(O)COc1ccc(Nc2nccc(Nc3cc(Cl)ccc3Cl)n2)cc1 (stereo not drawn),2.9
9,O=C(c1cc(Cc2n[nH]c(=O)c3ccccc23)ccc1F)N1CCN(C(=O)C2CCCO2)CC1 (stereo not drawn),0.9
10,CCC(c1nc2ccsc2c(=O)n1Cc1ccccc1)N(CCCN)C(=O)c1ccc(C)nc1 (stereo not drawn),2.56
11,CCOc1ccccc1-c1ccc(-c2nc3ccc(F)cc3c(N[C@H](C)C(=O)O)c2C#N)cc1,2.5
12,CC[C@H](NC(=O)c1c([S+](C)[O-])c(-c2cccs2)nc2ccccc12)c1ccccc1 (stereo partly drawn),3.56
13,Nc1ncc(-c2ccc(F)cc2)[nH]1,1.39
14,Cc1ccc(-c2cn(C)c(C)n2)cc1NC(=O)c1ccc(OCc2ccccn2)cc1,2.71
15,COc1cccc2[nH]ncc12,2.1
16,CCCc1c(OCc2ccc(C(=O)O)cc2)ccc(C(C)=O)c1O,2.1
17,O=C(Cc1ccc2c(n1)NCCC2)Nc1ccc(C[C@H](NC(=O)c2c(Cl)cccc2Cl)C(=O)O)cc1,-0.63
18,Cc1cn(C2CCCN(Cc3cccc(Oc4ccc(Cl)cc4)c3)C2)c(=O)[nH]c1=O (stereo not drawn),3.38
19,N#Cc1cccc(OC[C@@H](O)CNC2CCN(Cc3ccc(Cl)c(Cl)c3)CC2)c1,3.09
20,CC(C)C(NC(=O)Cn1c(-c2cccnc2)ccc(NC(=O)OCc2ccccc2)c1=O)C(=O)C(F)(F)F (stereo not drawn),3.05
21,COc1ccc(-c2ccccc2)cc1N1CC(=O)NS1(=O)=O,-1.01
22,COc1cc(N2CCN(C(C)=O)CC2)ccc1Nc1ncc(Cl)c(-c2cnc3ccc(N(C)C)cn23)n1,4.1
23,COc1cc(C(=O)NS(=O)(=O)c2ccccc2)ccc1Cn1cnc2ccc(NC(=O)CC3CCCC3)cc21,0.9

row,SMILES,logD
1,CCOc1ccccc1-c1ccc(-c2nc3ccc(F)cc3c(C(=O)NCCOCCN)c2C)cc1,2.46
2,COc1cc(N2CCN(C(C)=O)CC2)ccc1Nc1ncc(Cl)c(-c2cnc3cc(Cl)ccn23)n1,4.2
3,COc1cc2c(Nc3c(Cl)ccc4c3OCO4)ncnc2cc1OCCCN1CCCC1,1.62
4,COc1ccc(-c2cccc3c(N)c4c(nc23)CN(C2CCC2)C4=O)c(C)n1,3.92
5,CCCN(C)c1nc(N2CCC[C@@H](CC(=O)O)C2)ccc1C(=O)NC1CCCCC1,2.28
6,COCCNC(=O)c1ccc(Nc2ncc3cc(-c4ccnc(C)c4)ccc3n2)cc1,3.56
7,CNc1nc2ccccc2n1Cc1sc2c(c1C(=O)N1C[C@H](O)CO1)c(=O)n(C)c(=O)n2CC(C)C,1.77
8,O=C(COCc1ccncc1)N1CCC(c2ccc(Cl)cc2Cl)CC1,2.63
9,CC(NC(=O)C1(N)CCN(c2ncnc3[nH]ccc23)CC1)c1ccc(Cl)cc1 (stereo not drawn),2.7
10,Nc1ccc(Cl)c(C(=O)NCC23CC4CC(CC(C4)C2)C3)c1,3.45
11,CC(C)Cn1c(=O)n(C)c(=O)c2c(-c3cncn3C)n(Cc3cccc4ccccc34)nc21,4.1
12,CN1C(=O)CC(c2ccccc2)C1=O (stereo not drawn) [PHENSUXIMIDE],0.68
13,CC(O)(C(=O)Nc1ccc(S(=O)(=O)c2ccc(O)cc2)cc1)C(F)(F)F (stereo not drawn),2.78
14,CCCSc1nc(NC[C@H]2CC[C@H](C(=O)O)CC2)ccc1C(=O)NC1CCCCC1,2.61
15,COC(=O)[C@@H]1[C@H]2C[C@H]3c4[nH]c5ccccc5c4CCN3C[C@@H]2CC[C@@H]1O [YOHIMBINE],1.65
16,COc1ncc2ncc(=O)n(CCN3CCC(NCc4cc5c(cn4)OCCO5)CC3)c2n1,-0.14
17,C[C@@](O)(C(=O)Nc1ccc(C(=O)N2CCCCC2)cc1Cl)C(F)(F)F,2.62
18,CC[C@H](NC(=O)c1c(CS(C)(=O)=O)c(-c2ccccc2)nc2ccccc12)c1ccccc1,3.25
19,FC(F)(F)c1cc(COCC(c2ccccc2)N2CCNCC2)cc(C(F)(F)F)c1 (stereo not drawn),2.9
20,Cc1[nH]c(C(=O)NC2CCN(c3cc(C(=O)O)cc(Cl)n3)CC2)c(Cl)c1Cl,1.74
21,Cn1cnc2cc(OC(=O)c3ccccc3)cnc21,2.4
22,Cc1ncc(-c2ccnc(Nc3ccc(C(N)=O)c(F)c3)n2)n1C(C)C,2.8
23,CNc1cnc(-c2ccc(F)cc2)n(CC(=O)NC(C(=O)C(F)(F)F)C(C)C)c1=O (stereo not drawn),1.86

row,SMILES,logD
1,O=C(NC1Cc2ccccc2N(CC(=O)N2CCC(O)CC2)C1=O)c1cc2cc(Cl)sc2[nH]1 (stereo not drawn),2.86
2,CC(O)(C(=O)Nc1ccc(S(=O)(=O)c2ccncc2)cc1)C(F)(F)F (stereo not drawn),2.15
3,Cc1ccc(Cl)c(Nc2cc(Nc3ccc(OCC(O)CN(C)C)cc3)ncn2)c1 (stereo not drawn),2.16
4,Cc1ncc(-c2nc(Nc3ccc(C(=O)NC4CCN(C)CC4)cc3)ncc2F)n1C(C)C,2.13
5,CS(=O)(=O)c1ccc(C(=O)Nc2ccc(Cl)c(-c3ccccn3)c2)c(Cl)c1 [VISMODEGIB],2.84
6,O=C(Nc1ccc(F)cc1)c1cccnc1Oc1ccccc1,3.19
7,CN1CCN(c2cc(F)cc3c(=O)cc(C(=O)Nc4ccc(N5CCOCC5)cc4)[nH]c23)CC1,2.7
8,COc1cc2ncnc(NCc3cccc(C)c3)c2cc1OC,3.5
9,C#CC(C)n1c(=O)c2c(-c3cncn3C)n(Cc3ccnc4ccc(Cl)cc34)nc2n(CC2CC2)c1=O (stereo not drawn),3.59
10,O=C1CCOc2nc(COc3ccccc3)ccc21,2.3
11,CONC(=O)c1cnc(N2CCC(NC(=O)c3[nH]c(C)c(Cl)c3Cl)CC2)s1,3.1
12,O=C(NC1Cc2ccccc2N(CCCO)C1=O)c1cc2cc(Cl)sc2[nH]1 (stereo not drawn),3.49
13,Nc1ccc2c(c1)C(=O)C(=O)c1cc(N)ccc1-2,1.72
14,COCCC(=O)Nc1ccc(Nc2ncc3cc(-c4ccncc4)ccc3n2)cc1,2.78
15,O=c1[nH]n(C(c2ccccc2)c2ccncc2)c(=O)c2c(O)c3ccc(Cl)cc3nc12 (stereo not drawn),1.1
16,COc1cccc([C@@H](C)NCCCc2ccccc2Cl)c1,3
17,O=C(NCc1ccncc1)c1ccc(Oc2ccccc2)cc1,3.26
18,Cc1cc(N)c2cc(NC(=O)CCCCC(=O)Nc3ccc4nc(C)cc(N)c4c3)ccc2n1,0.53
19,CC(O)(C(=O)Nc1ccc(S(=O)(=O)c2cccnc2)cc1)C(F)(F)F (stereo not drawn),2.08
20,O=C(Nc1ccccc1)Nc1ccccc1C(=O)O,-0.12
21,COc1ccc(S(=O)(=O)Nc2ccc(-c3ccccc3)n(CC(=O)NC(C(=O)C(F)(F)F)C(C)C)c2=O)cc1 (stereo not drawn),2.5
22,CSc1ncccc1C(=O)NCc1ccc(C)cc1,2.71
23,Cc1cc(S(=O)(=O)N2CCN(C)CC2)ccc1-c1cnc(N)c(C(=O)Nc2cccnc2)n1,2.6

row,SMILES,logD
1,CC[C@H](NC(=O)c1c([S+]([O-])CC)c(-c2ccccc2)nc2ccccc12)c1ccccc1 (stereo partly drawn),3.45
2,CC(=O)NCc1ccc(CN2CCN(c3ccccc3)CC2)cc1,1.78
3,CN[C@@H](C)C(=O)N[C@H](C(=O)N[C@H]1CCCN(CCc2ccc(C)cc2)C1)C(C)(C)C,2.05
4,FC(F)(F)c1cc(COCC(c2cccc(Cl)c2)N2CCNCC2)cc(C(F)(F)F)c1 (stereo not drawn),4.2
5,O=C1CCOc2nc(CCc3ccccc3)ccc21,2.5
6,Cc1cc(Nc2ncc(F)c(N[C@H]3[C@@H](C(N)=O)[C@@H]4C=C[C@H]3C4)n2)ccc1N1CCN(C)CC1,2.9
7,CC(C)[N+](C)(CCOC(=O)C1c2ccccc2Oc2ccccc21)C(C)C [PROPANTHELINE],0.2
8,CC(N)(COP(=O)(O)O)C(=O)O (stereo not drawn),2.5
9,Cn1cc(C#N)cc1-c1c2c(=O)n(CC#CCn3cncn3)c(=O)n(CC3CC3)c2nn1Cc1ccnc2ccc(Cl)cc12,3.43
10,Cc1cc(CNc2ncc(Cl)c(Nc3cc(C)[nH]n3)n2)on1,2.68
11,COc1ccc(/C=C2/CCc3ccccc3C2=O)cc1CN1CCOCC1,3.8
12,COCCOc1ccc(C(=O)Nc2cc(NC(=O)c3cccc(N(C)C)c3)ccc2C)cc1,2.74
13,Cc1ccc(-c2ncc(CN3CCOCC3)s2)cc1NC(=O)c1ccc(OCc2ccccn2)cc1,3.1
14,Cn1ncc(Cl)c1-c1cc(C(=O)N[C@H](CN)Cc2cccc(F)c2)sc1Cl [AFURESERTIB],2.99
15,O=c1oc2ccc(O)cc2cc1-c1ccc(O)cc1,2.9
16,COC[C@H](C)Oc1cc(Oc2ccc(S(C)(=O)=O)cc2)cc(C(=O)Nc2ccc(C(=O)O)cn2)c1,-0.41
17,COc1ccc(C(=O)Nc2cc(NC(=O)c3cccc(N(C)C)c3)ccc2C)cc1,3.17
18,O=C(Nc1nc(-c2ccccc2)cs1)c1cccnc1,3.62
19,NC(=O)c1ccc(=O)n(Cc2ccc(Cl)cc2Cl)c1,2.36
20,c1ccc(-c2ccc(COc3ccc4c(c3)CCC(CCN3CCCCC3)C4)cc2)cc1 (stereo not drawn),3.3
21,Cc1cc(C)cc(CCOCCS(=O)(=O)NCCNCCc2ccc(O)c3nc(O)sc23)c1,2.45
22,CC(C)C(NC(=O)Cn1c(-c2ccccc2)ccc(NS(=O)(=O)NCc2ccccc2)c1=O)C(=O)C(F)(F)F (stereo not drawn),2.57
23,Cc1cn([C@H]2CCCN(Cc3cccc(Oc4cccc(Br)c4)c3)C2)c(=O)[nH]c1=O,3.68
